According to US10351570B2, “Compounds and uses thereof” (Kala Pharmaceuticals, Inc., priority 2013, dated 2019):
Where two headings read alike, the source gives them in different places.

Legend:
[1] = Milling with Pluronic F127 into mucus penetrating particles; particle size by dynamic light scattering; format: physicochemical; details: formulated as MPP, milled with Pluronic F127 in DPBS; for Particle Size: dynamic light scattering
Text: Compounds of the present invention synthesized in accordance with the preceding Examples were formulated as mucus penetrating particles (MPP). Specifically, compounds I-2, compound I-5, and compound I-6 were each milled in the presence of Pluronic F127 (F127) to determine whether F127 1) aids particle size reduction to several hundreds of nanometers and 2) physically (non-covalently) coats the surface of generated nanoparticles with a mucoinert coating that would minimize particle interactions with mucus constituents and prevent mucus adhesion.
A milling procedure was employed in which an aqueous dispersion containing coarse drug particles and Pluronic F127 (F127) was milled with grinding medium until particle size was reduced below 400 nm as measured by dynamic light scattering. Table 4 lists the size of particles and polydispersity index (a measure of the width of the particle size distribution) generated using this technique. In this example suspensions were buffered using DPBS (Dulbecco's Phosphate-Buffered Saline) which yields a suspension that is both isotonic and has a physiologically relevant pH.

[2] = Draize-Ocular Irritation assessment; format: in vivo, Dutch-belted rabbits; details: topical 0.5% solution, 50 μL BID 5 days
Experimental: (§1) In this example, the formulation consisted of 0.5% I-2, 0.5% F127, in 20 mM citrate buffer pH 6.0 and NaCl (added to produce isotonic formulation).
(§2) The portion of the retina and choroid collected and analyzed was an 8-mm round punch where the macula is located in humans.

[3] = Physical and chemical stability of I-2 solutions at room temperature; format: physicochemical; details: F127 (0.5%), 20 mM Tris (pH 8); precipitation
Experimental: Solutions of I-2 were formulated with F127 or Tween 80, and under a range of pH values. Briefly, I-2 was first completely solubilized using an acidic solution (0.1 N HCl) at a high concentration of […]. The final formulation was diluted to a solution consisting of 0.5% (w/v) I-2 into buffered solution containing F127 or Tween 80 as described in Table 5. Following dilution, the pH of the formulations was measured using pH indicator strips (PEHANON) and confirmed to be within expected range (±0.5 units of target pH).
Physical and chemical stability of the solutions at room temperature (20-25° C.) were assessed after 7-10 days (tfinal). Physical instability in a solution can manifest as the precipitation and sedimentation of the drug of interest and excipients over time. To assess physical stability, the formulations at tfinal were first filtered through a 300 kDa modified polyethersulfone filter membrane (Nanosep) to remove any precipitate in the solution. The concentration of I-2 in the filtrates was then measured and compared to that at t=0. The purity of I-2 in the unfiltered solution was also evaluated at tfinal, to further confirm chemical stability. This parameter is defined by the area under the signal peak that is attributed to compound I-2 as a percentage of all peaks reported by in the sample by HPLC (% peak area).

[4] = Nanoparticle mobility in human cervicovaginal mucus (dark field microscopy); details: low pH of CVM
Experimental: In order to determine whether the generated nanoparticles have reduced interactions with mucins and are therefore able to move within mucus without becoming trapped, particles were incubated with human cervicovaginal mucus (CVM) and observed via dark field microscopy. In a typical experiment, 51 μL of the nanoparticle suspension was added to 20 μl of CVM. Observations were made in a minimum of three distinct and randomly selected areas of the CVM sample. Control particles with known behavior were used to qualify the CVM sample as appropriate for the assay.

[5] = PK study after topical ocular administration of compound I-2 solution; format: in vivo, Dutch-belted rabbits; details: Dutch-belted, rabbit, topical or ocular, 50 μL of 0.5% solution, topical 0.5% solution, 50 μL BID 5 days; for AUC(0-t): read-out: AUC0-12 hr
Experimental: as §1, §2

Row | Polydispersity Index (PDI) [1] | Particle Size [1] [nm] | physical stability of solution [3] | solubility in CVM [4] | Cmax ([5]; Choroid (8-mm punch)) [nM] | Tmax ([5]; Choroid (8-mm punch)) [h] | AUC(0-t) ([5]; Choroid (8-mm punch)) [µM·h] | Cmax ([5]; Plasma) [nM] | Tmax ([5]; Plasma) [h] | AUC(0-t) ([5]; Plasma) [µM·h] | half-life ([5]; Plasma, read-out: t½ (converted)) [h] | Cmax ([5]; Retina (8-mm punch)) [nM] | Tmax ([5]; Retina (8-mm punch)) [h] | AUC(0-t) ([5]; Retina (8-mm punch)) [µM·h] | SMILES | Draize-Ocular Irritation [2]
1 | 0.206 | 245 |  |  |  |  |  |  |  |  |  |  |  |  | Cc1ccc(Oc2ccc3nc(NC(=O)CC4COC4)cn3n2)cc1NC(=O)c1cccc(F)c1 [Compound I-6] | 
2 | 0.160 | 276 |  |  |  |  |  |  |  |  |  |  |  |  | Cc1cc(C(=O)Nc2cc(Oc3ccc4nc(NC(=O)NC5COC5)cn4n3)ccc2C)n(C)n1 [Compound I-5] | 
3 |  |  | major physical instability | soluble | 1790 | 2 | 12.5 | 5.96 | 0.5 | 0.0256 | 3.63 | 218 | 0.5 | 2.06 | Cc1cc(C(=O)Nc2cc(Oc3ccc4nc(NC(=O)CN5CC[C@H](N(C)C)C5)cn4n3)ccc2C)n(C)n1 [Compound I-2] | no irritation
